Measurements published in PubChem BioAssay AID463206 (Broad Institute, 2010).
The source made the active and inactive calls.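 How the source made its calls: active means caspase luminescence falls with dose and the half-maximal concentration AC50 from the fitted curve is at or below a set limit; inconclusive means flat fit at 30 to 70% signal loss, or invalid fit; inactive means AC50 above the limit, or signal rises instead.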

Test system: INS-1E cytokine-induced caspase-3/7, Caspase-Glo luminescence, 48 h
Assay: inhibitors of cytokine-induced caspase-3/7 activity, dose response, orthogonal assay for beta-cell apoptosis protection project, INS-1E rat cells, luminescence (AID 463206)

Q: For `Cc1ccc(C#CC[N+]2(CC#Cc3ccc(C)cc3)CCCCC2)cc1`, which AC50 is on record?
A: > 26 µM (inactive)

Q: How did the AC50 turn out when `N#Cc1ccc(C(=O)Nc2nc(-c3cccs3)c(C(=O)C(F)(F)F)s2)cc1` was run?
A: > 26 µM (inactive)

Q: For `COc1cc(C)c(C(=O)CC(=O)c2c(C)cc(OC)cc2C)c(C)c1`, which AC50 is on record?
A: > 26 µM (inactive)

Q: `CNc1nc(N)c([N+](=O)[O-])c(Nc2cccc(F)c2)n1` was tested. Which AC50 did it give?
A: > 26 µM (inactive)

Q: Which AC50 does the source give for `O=[N+]([O-])c1ccc(S(=O)(=O)c2ccccc2)nc1` here?
A: > 26 µM (inactive)

Q: Which AC50 does the source give for `CC(Sc1nnc2c(n1)[nH]c1ccccc12)C(=O)N(C)C1CCCCC1` (stereo unspecified) here?
A: > 12 µM (inactive)

Q: With `CC1(C)CC(N2CCN(c3ccccc3)CC2)=CC(=[N+]2CCCC2)C1` as the molecule, how does the AC50 read?
A: > 26 µM (inactive)

Q: With `O=C(N/N=C/c1ccc([N+](=O)[O-])s1)C(O)c1ccccc1` (stereo unspecified) as the molecule, how does the AC50 read?
A: > 26 µM (inactive)

Q: Which AC50 does the source give for `C=CC(C)(C)c1c(O)c(CC=C(C)C)c(O)c2c(=O)c3ccc(O)c(O)c3oc12` here?
A: > 26 µM (inactive)

Q: Which AC50 does the source give for `CC(Nc1ncnc2ccccc12)c1ccccc1` (stereo unspecified) here?
A: > 26 µM (inactive)

Q: `C/C(Cn1nnc([N+](=O)[O-])n1)=N\NC(=O)c1ccccc1Cl` was tested. Which AC50 did it give?
A: > 26 µM (inactive)

Q: For `CCCCCCCCn1c(=O)c(C(=O)OC)c(N)c2ccccc21`, which AC50 is on record?
A: > 26 µM (inactive)

Q: With `COc1ccc2cc1Oc1ccc(cc1)C[C@H]1c3c(cc(OC)c4c3Oc3c(ccc5c3[C@H](C2)N(C)CC5)O4)CCN1C` as the molecule, how does the AC50 read?
A: > 26 µM (inactive)

Q: For `CNc1nc2cc([N+](=O)[O-])c([N+](=O)[O-])cc2nc1NC`, which AC50 is on record?
A: > 26 µM (inactive)

Q: For `Cc1cc(N/N=C/c2ccc(O)cc2O)nc(-n2nc(C)cc2C)n1`, which AC50 is on record?
A: > 26 µM (inactive)

Q: For `CC(=O)NC(c1ccc(C(C)C)cc1)c1ccc2cccnc2c1O` (stereo unspecified), which AC50 is on record?
A: > 26 µM (inactive)

Q: How did the AC50 turn out when `CCCCSc1ccc(NC(=O)c2cccnc2)cc1` was run?
A: > 26 µM (inactive)

Q: Which AC50 does the source give for `Cn1c(SCC(=O)N/N=C/c2ccc([N+](=O)[O-])s2)nnc1-c1ccc(Cl)cc1` here?
A: > 26 µM (inactive)

Q: With `COc1cc(CNC(C)c2ccccc2)cc(Br)c1OCc1ccc(F)cc1` (stereo unspecified) as the molecule, how does the AC50 read?
A: > 26 µM (inactive)

Q: `O=C(CNc1cccc2ccccc12)N/N=C/c1ccc([N+](=O)[O-])o1` was tested. Which AC50 did it give?
A: > 26 µM (inactive)

Q: With `Oc1c(C(Nc2ccccn2)c2ccccn2)ccc2cccnc12` (stereo unspecified) as the molecule, how does the AC50 read?
A: > 12 µM (inactive)

Q: For `CC(C)NC(=S)NC(c1ccccc1)(c1ccccc1)c1ccccc1`, which AC50 is on record?
A: > 26 µM (inactive)

Q: Which AC50 does the source give for `Cc1cc2nc(-c3ccc[nH]c3=O)[nH]c2cc1C` here?
A: > 26 µM (inactive)

Q: Which AC50 does the source give for `O=C(Nc1nc(-c2ccccn2)cs1)c1ccc([N+](=O)[O-])o1` here?
A: > 26 µM (inactive)

Q: Which AC50 does the source give for `Cc1occc1C(=O)N1CCCC(N2CCN(c3cccc(C(F)(F)F)c3)CC2)C1` (stereo unspecified) here?
A: > 26 µM (inactive)

Q: How did the AC50 turn out when `CCN(CC)c1ccc(/C=N/Nc2nc(C)cc(C)n2)c(O)c1` was run?
A: > 26 µM (inactive)

Q: For `Oc1c(C(c2ccccc2Cl)N2CCCC2)ccc2cccnc12` (stereo unspecified), which AC50 is on record?
A: > 26 µM (inactive)

Q: `CN1C2CCC1/C(=C/c1ccccn1)C(=O)/C2=C\c1ccccn1` was tested. Which AC50 did it give?
A: > 26 µM (inactive)

Q: `CCOC(=O)N1CCN(Cc2cc(Cl)c3cccnc3c2O)CC1` was tested. Which AC50 did it give?
A: > 26 µM (inactive)

Q: With `O=C(COC(=O)Cn1cnc2ccccc2c1=O)Nc1ccc2c(c1)OCO2` as the molecule, how does the AC50 read?
A: > 26 µM (inactive)

Q: Which AC50 does the source give for `Cc1ccc(NNC(=O)c2ccno2)cc1Cl` here?
A: > 26 µM (inactive)

Q: For `Cc1nc(NCCc2ccc(S(N)(=O)=O)cc2)c2c(C)c(C)sc2n1`, which AC50 is on record?
A: > 26 µM (inactive)

Q: `COc1ccc(-c2cc(-c3nc4ccccn4c3NCc3ccccc3)ccc2OC)cc1` was tested. Which AC50 did it give?
A: > 26 µM (inactive)

Q: Which AC50 does the source give for `COc1ccc2nc3cc(Cl)ccc3c(Nc3cc(CN4CCCC4)c(O)c(CN4CCCC4)c3)c2n1` here?
A: > 26 µM (inactive)

Q: For `O=S(=O)(c1ccc2c(c1)OCCO2)N1CCN(c2ncnc3sccc23)CC1`, which AC50 is on record?
A: > 26 µM (inactive)

Q: For `COc1cc2nc(N3CCN(c4cc(C)ccc4C)CC3)nc(N)c2cc1OC`, which AC50 is on record?
A: > 26 µM (inactive)

Q: How did the AC50 turn out when `CCCCCc1ccc(OCCCC[n+]2cccc(C)c2)c(CCCCC)c1` was run?
A: > 26 µM (inactive)

Q: `CCOC(=O)N1CCN(S(=O)(=O)c2ccc(C(=O)NNc3nc4cc(C)cc(C)c4s3)cc2)CC1` was tested. Which AC50 did it give?
A: > 26 µM (inactive)

Q: With `O=C(Nc1ccc(Cl)cc1)Nc1nnc(CSCc2ccc(Cl)cc2)s1` as the molecule, how does the AC50 read?
A: > 26 µM (inactive)

Q: For `CC(C)CNC(=O)COC(=O)c1c2c(nc3ccccc13)/C(=C/c1cccs1)CC2`, which AC50 is on record?
A: > 26 µM (inactive)

Q: `COC(=O)c1ccc2[nH]c3cccc(/C(=C/c4ccccc4)c4ccccc4)c3c2c1` was tested. Which AC50 did it give?
A: > 26 µM (inactive)

Q: With `COc1ccc(C[C@H]2CN3C(=NC[C@@H]3Cc3ccccc3)N2CCNC(=O)CCC2CCCCC2)cc1` as the molecule, how does the AC50 read?
A: > 26 µM (inactive)

Q: With `O=C(c1cnc(N2CCN(c3ccccn3)CC2)c2ccccc12)N1CCN(c2cccc(Cl)c2)CC1` as the molecule, how does the AC50 read?
A: > 26 µM (inactive)

Q: How did the AC50 turn out when `N#Cc1c(N2CCCCC2)nc(N2CCCCC2)c2c1CCN(Cc1ccccc1)C2` was run?
A: > 26 µM (inactive)

Q: With `CCOC(=O)C(=CNc1ccc(C(O)(C(=O)OCC)C(F)(F)F)cc1C)C(=O)OCC` (stereo unspecified) as the molecule, how does the AC50 read?
A: > 26 µM (inactive)

Q: With `Clc1ccc(CSc2ccc(-c3ccccn3)nn2)cc1` as the molecule, how does the AC50 read?
A: > 26 µM (inactive)
